# From ChEMBL document CHEMBL3351298, “Design, synthesis and evaluation of novel tacrine-(β-carboline) hybrids as multifunctional agents for the treatment of Alzheimer's disease” (Bioorg Med Chem, 2014)
# Calls of active or inactive are those of the source. No cut-off for these calls is given here.
# Experiments:
# [1] = molecular target: Acetylcholinesterase (Homo sapiens, UniProt P22303)
# Description: Inhibition of human AChE using acetylthiocholine iodide as substrate incubated for 6 mins by spectrophotometric method
# [2] = Retention time of the compound using CH3OH/H2O(0.1% Formic acid), 70% (v/v) of CH3OH gradient by HPLC analysis; type: physicochemical
# [3] = molecular target: Acetylcholinesterase (Electrophorus electricus, UniProt O42275)
# Description: Inhibition of electric eel AChE using acetylthiocholine iodide as substrate incubated for 6 mins by spectrophotometric method
# [4] = in vitro; conditions: PAMPA
# [5] = molecular target: Amyloid-beta precursor protein (Homo sapiens) (UniProt P05067); test: Inhibition of amyloid beta (1 to 42) (unknown origin) self-induced aggregation at 20 uM after 46 to 48 hrs by thioflavin-T based fluorometric assay
# [6] = molecular target: Cholinesterase (Equus caballus, UniProt P81908)
# Description: Inhibition of equine serum BChE using S-butyrylthiocholine chloride as substrate incubated for 6 mins by spectrophotometric method
# [7] = Retention time of the compound using CH3OH/H2O (0.1% Formic acid), 65% (v/v) of CH3OH gradient by HPLC analysis; type: physicochemical
# [8] = Retention time of the compound using CH3OH/H2O(0.1% Formic acid), 55% (v/v) of CH3OH gradient by HPLC analysis; type: physicochemical
# [9] = Retention time of the compound using CH3OH/H2O (0.1% Formic acid), 60% (v/v) of CH3OH gradient by HPLC analysis; type: physicochemical
# [10] = Retention time of the compound using CH3OH/H2O(0.1% Formic acid), 45% (v/v) of CH3OH gradient by HPLC analysis; type: physicochemical
# [11] = molecular target: Acetylcholinesterase (Electrophorus electricus) (UniProt O42275); test: Mixed-type of inhibition in electric eel AChE by Lineweaver-Burk plot analysis
# [12] = system: PC-12; test: Neuroprotective activity against H2O2-induced oxidative damage in rat PC12 cells assessed as increase in cell viability at 0.4 to 10 uM after 24 hrs by MTT assay; type: functional, cell-based
# [13] = Neuroprotective activity against H2O2-induced oxidative damage in rat PC12 cells assessed as increase in cell viability at 10 uM after 24 hrs by MTT assay; type: functional, PC-12
# [14] = Metal chelating activity of the compound assessed as Cu2+ complex formation at 25 uM by UV-vis spectrometry; type: physicochemical
# [15] = Retention time of the compound using CH3OH/H2O(0.1% Formic acid), 75% (v/v) of CH3OH gradient by HPLC analysis; type: physicochemical
# Chain of Amyloid-beta precursor protein (Homo sapiens) (P05067 whole entry): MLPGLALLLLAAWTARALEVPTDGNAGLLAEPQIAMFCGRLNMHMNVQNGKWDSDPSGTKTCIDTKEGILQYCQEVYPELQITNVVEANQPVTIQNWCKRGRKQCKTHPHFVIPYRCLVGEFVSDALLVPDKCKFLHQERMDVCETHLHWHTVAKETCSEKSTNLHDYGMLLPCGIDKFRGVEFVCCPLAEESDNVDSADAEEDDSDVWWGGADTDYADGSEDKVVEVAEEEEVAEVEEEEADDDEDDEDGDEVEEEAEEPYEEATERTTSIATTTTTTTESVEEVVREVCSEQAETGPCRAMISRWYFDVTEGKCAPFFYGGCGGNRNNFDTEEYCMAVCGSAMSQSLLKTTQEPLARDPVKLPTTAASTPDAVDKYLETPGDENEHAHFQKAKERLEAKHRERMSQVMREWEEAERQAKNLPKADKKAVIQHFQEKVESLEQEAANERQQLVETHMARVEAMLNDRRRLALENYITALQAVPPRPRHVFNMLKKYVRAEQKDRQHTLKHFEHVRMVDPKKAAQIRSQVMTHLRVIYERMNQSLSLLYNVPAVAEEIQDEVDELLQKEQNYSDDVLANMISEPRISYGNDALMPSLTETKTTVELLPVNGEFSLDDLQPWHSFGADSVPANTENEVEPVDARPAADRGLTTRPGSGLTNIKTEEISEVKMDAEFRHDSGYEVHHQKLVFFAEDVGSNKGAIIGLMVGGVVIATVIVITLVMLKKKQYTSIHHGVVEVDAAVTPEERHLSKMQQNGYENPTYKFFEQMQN
# Chain of Cholinesterase (P81908 whole entry): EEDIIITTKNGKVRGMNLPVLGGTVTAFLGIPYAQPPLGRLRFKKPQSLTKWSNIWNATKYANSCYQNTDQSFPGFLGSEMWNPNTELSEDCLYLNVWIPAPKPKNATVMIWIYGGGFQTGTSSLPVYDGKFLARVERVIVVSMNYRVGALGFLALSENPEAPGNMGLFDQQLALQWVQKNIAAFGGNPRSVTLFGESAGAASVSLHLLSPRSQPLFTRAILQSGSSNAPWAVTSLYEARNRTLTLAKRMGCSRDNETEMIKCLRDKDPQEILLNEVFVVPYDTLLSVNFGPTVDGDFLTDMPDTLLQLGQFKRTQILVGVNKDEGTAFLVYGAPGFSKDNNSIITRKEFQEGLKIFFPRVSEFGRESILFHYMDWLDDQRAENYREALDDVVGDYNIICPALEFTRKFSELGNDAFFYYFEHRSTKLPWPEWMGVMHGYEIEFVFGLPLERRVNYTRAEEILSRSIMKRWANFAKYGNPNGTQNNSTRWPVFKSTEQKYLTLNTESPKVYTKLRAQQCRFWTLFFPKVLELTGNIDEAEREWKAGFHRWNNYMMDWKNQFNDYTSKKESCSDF
# Chain of Acetylcholinesterase (Electrophorus electricus, UniProt O42275) (O42275 whole entry): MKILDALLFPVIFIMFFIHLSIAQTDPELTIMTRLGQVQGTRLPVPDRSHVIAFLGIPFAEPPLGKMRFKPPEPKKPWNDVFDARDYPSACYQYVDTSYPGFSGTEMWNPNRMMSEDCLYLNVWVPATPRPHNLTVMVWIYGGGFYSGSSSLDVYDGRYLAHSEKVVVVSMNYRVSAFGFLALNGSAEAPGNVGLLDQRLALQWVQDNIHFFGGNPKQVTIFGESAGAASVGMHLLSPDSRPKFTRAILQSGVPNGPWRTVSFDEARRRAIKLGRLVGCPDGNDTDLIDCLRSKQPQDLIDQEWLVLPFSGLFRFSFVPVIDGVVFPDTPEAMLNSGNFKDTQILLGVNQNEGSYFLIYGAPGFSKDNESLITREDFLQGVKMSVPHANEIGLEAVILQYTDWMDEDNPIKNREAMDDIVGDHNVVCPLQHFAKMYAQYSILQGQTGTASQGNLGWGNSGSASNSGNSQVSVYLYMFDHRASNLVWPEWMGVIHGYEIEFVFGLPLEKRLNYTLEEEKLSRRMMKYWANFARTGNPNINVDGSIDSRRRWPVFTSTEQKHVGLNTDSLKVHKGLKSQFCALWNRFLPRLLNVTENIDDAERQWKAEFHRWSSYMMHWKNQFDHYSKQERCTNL
# Chain of Acetylcholinesterase (Homo sapiens, UniProt P22303) (P22303 whole entry): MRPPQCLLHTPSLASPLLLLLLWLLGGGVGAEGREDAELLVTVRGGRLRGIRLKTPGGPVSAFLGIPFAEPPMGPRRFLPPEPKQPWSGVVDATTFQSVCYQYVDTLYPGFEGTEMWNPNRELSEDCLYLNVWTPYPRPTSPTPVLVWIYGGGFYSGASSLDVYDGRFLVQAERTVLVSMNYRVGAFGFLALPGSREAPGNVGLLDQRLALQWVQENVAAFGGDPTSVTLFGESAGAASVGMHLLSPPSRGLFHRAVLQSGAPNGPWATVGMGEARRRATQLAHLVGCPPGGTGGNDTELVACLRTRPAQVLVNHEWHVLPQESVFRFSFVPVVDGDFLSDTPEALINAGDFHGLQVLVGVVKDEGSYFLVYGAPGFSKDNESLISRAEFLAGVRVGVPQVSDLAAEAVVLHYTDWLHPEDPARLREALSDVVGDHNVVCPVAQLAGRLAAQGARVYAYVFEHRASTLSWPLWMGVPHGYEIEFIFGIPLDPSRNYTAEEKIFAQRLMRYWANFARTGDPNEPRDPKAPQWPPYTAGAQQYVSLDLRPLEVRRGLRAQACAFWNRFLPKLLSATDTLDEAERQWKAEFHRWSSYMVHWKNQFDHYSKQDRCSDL
# Chain of Acetylcholinesterase (Electrophorus electricus) (O42275 24-633 limits assumed): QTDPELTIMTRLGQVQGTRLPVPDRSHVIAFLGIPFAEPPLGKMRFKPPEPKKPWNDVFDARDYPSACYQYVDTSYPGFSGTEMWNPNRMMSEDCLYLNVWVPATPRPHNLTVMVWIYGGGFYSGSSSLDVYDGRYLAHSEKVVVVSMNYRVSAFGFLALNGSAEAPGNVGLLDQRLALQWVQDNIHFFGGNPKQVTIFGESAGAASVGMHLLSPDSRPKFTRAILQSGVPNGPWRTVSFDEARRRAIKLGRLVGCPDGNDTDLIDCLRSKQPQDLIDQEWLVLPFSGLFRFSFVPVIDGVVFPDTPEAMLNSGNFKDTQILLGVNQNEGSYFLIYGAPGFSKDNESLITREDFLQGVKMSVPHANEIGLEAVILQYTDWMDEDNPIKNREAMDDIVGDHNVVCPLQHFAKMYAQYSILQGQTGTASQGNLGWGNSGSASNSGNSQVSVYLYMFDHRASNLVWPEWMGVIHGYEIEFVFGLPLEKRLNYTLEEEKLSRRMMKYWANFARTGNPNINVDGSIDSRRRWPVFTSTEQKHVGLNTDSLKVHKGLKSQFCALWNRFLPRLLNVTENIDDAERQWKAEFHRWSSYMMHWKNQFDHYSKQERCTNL
SMILES,IC50 [1],IC50 [3],Papp [4],inhibition [5],IC50 [6],other results
CC(C)(C)OC(=O)N[C@@H](Cc1c[nH]c2ccccc12)C(=O)NCCCCCCNc1c2c(nc3ccccc13)CCCC2,116 nM,67.3 nM,5.52 ×10⁻⁶ cm/s,62.1%,4.3 nM,Retention_time [2]: 4.417 min
CC1N[C@H](C(=O)NCCCCCCNc2c3c(nc4ccccc24)CCCC3)Cc2c1[nH]c1ccccc21 (stereo not given in full),203 nM,156 nM,,48.6%,240 nM,
CCc1nc(C(=O)NCCCCCCNc2c3c(nc4ccccc24)CCCC3)cc2c1[nH]c1ccccc12,98.2 nM,51.7 nM,4.97 ×10⁻⁶ cm/s,44.6%,96.9 nM,Retention_time [7]: 10.991 min
CC1c2[nH]c3ccccc3c2C[C@@H](C(=O)NCCCCCCNc2c3c(nc4ccccc24)CCCC3)N1C(=O)OC(C)(C)C (stereo not given in full),526 nM,389 nM,,42.3%,22.3 nM,Retention_time [2]: 8.219 min
Cc1nc(C(=O)NCCCCCCCCNc2c3c(nc4ccccc24)CCCC3)cc2c1[nH]c1ccccc12,153 nM,107 nM,,36.6%,245 nM,Retention_time [2]: 7.963 min
Cc1nc(C(=O)NCCCCNc2c3c(nc4ccccc24)CCCC3)cc2c1[nH]c1ccccc12,325 nM,268 nM,,39.3%,158 nM,Retention_time [8]: 10.988 min
CC(C)(C)OC(=O)N1Cc2[nH]c3ccccc3c2C[C@H]1C(=O)NCCCCCCNc1c2c(nc3ccccc13)CCCC2,187 nM,141 nM,5.81 ×10⁻⁶ cm/s,52.4%,7.5 nM,Retention_time [9]: 17.683 min
O=C(NCCCCCCNc1c2c(nc3ccccc13)CCCC2)[C@@H]1Cc2c([nH]c3ccccc23)CN1,63.2 nM,21.6 nM,5.6 ×10⁻⁶ cm/s,65.8%,39.8 nM,Retention_time [10]: 7.932 min; inhibition [11]: Active; Activity [12]: Active; Activity [13]: 73.67%; Activity [14]: Active
Clc1cccc(Cl)c1N=C1NCCN1 [CLONIDINE],,,3.8 ×10⁻⁶ cm/s,,,
O=C(NCCCCCCNc1c2c(nc3ccccc13)CCCC2)c1cc2c([nH]c3ccccc32)c(-c2ccc(F)cc2)n1,306 nM,230 nM,,29.7%,205 nM,Retention_time [15]: 5.973 min
O=C(NCCCCCCNc1c2c(nc3ccccc13)CCCC2)c1cc2c(cn1)[nH]c1ccccc12,91.8 nM,32.4 nM,5.36 ×10⁻⁶ cm/s,41.2%,41.3 nM,Retention_time [9]: 15.899 min
Cc1nc(C(=O)NCCNc2c3c(nc4ccccc24)CCCC3)cc2c1[nH]c1ccccc12,,485 nM,,42.4%,539 nM,Retention_time [8]: 10.74 min
CC(=O)N[C@@H](Cc1c[nH]c2ccccc12)C(=O)NCCCCCCNc1c2c(nc3ccccc13)CCCC2,153 nM,115 nM,,61.4%,6.2 nM,Retention_time [9]: 4.642 min
Cc1nc(C(=O)NCCCCCCNc2c3c(nc4ccccc24)CCCC3)cc2c1[nH]c1ccccc12,92.6 nM,40.6 nM,,41.5%,93.6 nM,Retention_time [9]: 13.685 min
Cc1nc(C(=O)NCCCCCCCCCCNc2c3c(nc4ccccc24)CCCC3)cc2c1[nH]c1ccccc12,,783 nM,,38.8%,364 nM,Retention_time [15]: 7.918 min
CN1C(C(=O)Nc2ccccn2)=C(O)c2ccccc2S1(=O)=O [PIROXICAM],,,1.2 ×10⁻⁶ cm/s,,,
CC(=O)[C@H]1CC[C@H]2[C@@H]3CCC4=CC(=O)CC[C@]4(C)[C@H]3CC[C@]12C [PROGESTERONE],,,4.14 ×10⁻⁶ cm/s,,,
COc1ccc(-c2nc(C(=O)NCCCCCCNc3c4c(nc5ccccc35)CCCC4)cc3c2[nH]c2ccccc23)cc1,149 nM,97.7 nM,,25.2%,329 nM,Retention_time [15]: 5.664 min
COC(=O)c1cc2c(cn1)[nH]c1ccccc12 [BETA-CCM],,63000 nM,,22.1%,> 100000 nM,
O=C(NCCCCCCNc1c2c(nc3ccccc13)CCCC2)c1cc2c([nH]c3ccccc32)c(-c2ccccc2)n1,159 nM,127 nM,,26.1%,129 nM,Retention_time [7]: 23.485 min
N[C@@H](Cc1c[nH]c2ccccc12)C(=O)NCCCCCCNc1c2c(nc3ccccc13)CCCC2,96.3 nM,51.6 nM,4.45 ×10⁻⁶ cm/s,66.3%,10.6 nM,Retention_time [10]: 5.426 min; Activity [12]: Active
NCCc1ccc(O)c(O)c1 [DOPAMINE],,,0.15 ×10⁻⁶ cm/s,,,
